Experimental data published in publication PMC5645246 (Anesthesiology, 2017).
Where “and” joins values, the source holds several entries; their conditions need not be identical. Identical values can stand only once. Entries after “also recorded” stand apart in the source; their conditions may differ. Like-named read-outs stand apart in the source and are kept apart here.

What was measured:
[1] = tested on: GABAA receptor transmembrane anesthetic binding sites; conditions: photolabel protection studies; cited from earlier work
α1β3γ2L GABAA receptors [2] = biological target: T1, α1β3γ2L GABAA receptors (Homo sapiens, UniProt P14867+P18507+P28472); format: cell-based; conditions: for EC5 GABA-evoked currents in the presence of drug, as % of those evoked by 1 mM GABA: 300 μM drug, mean ± SD; for maximum peak current amplitude at high drug concentrations, relative to that produced by 1 mM GABA: EC5 GABA; for maximum peak current amplitude at high drug concentrations, relative to that produced by 1 mM GABA / slope of potentiation concentration-response curve: fit to equation 1
T1 sequence (P14867 28-456): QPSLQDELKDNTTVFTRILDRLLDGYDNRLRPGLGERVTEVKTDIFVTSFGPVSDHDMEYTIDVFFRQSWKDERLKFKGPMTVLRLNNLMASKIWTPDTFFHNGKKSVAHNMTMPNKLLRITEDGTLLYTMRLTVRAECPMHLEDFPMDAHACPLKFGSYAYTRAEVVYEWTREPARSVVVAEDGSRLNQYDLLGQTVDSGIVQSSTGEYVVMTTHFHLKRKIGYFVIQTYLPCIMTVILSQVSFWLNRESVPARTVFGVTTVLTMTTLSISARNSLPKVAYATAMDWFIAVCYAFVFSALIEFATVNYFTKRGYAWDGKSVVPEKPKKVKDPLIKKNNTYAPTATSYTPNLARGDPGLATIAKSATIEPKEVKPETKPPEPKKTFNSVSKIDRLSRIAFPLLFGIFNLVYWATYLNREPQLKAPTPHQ
T1 sequence (P28472 26-473): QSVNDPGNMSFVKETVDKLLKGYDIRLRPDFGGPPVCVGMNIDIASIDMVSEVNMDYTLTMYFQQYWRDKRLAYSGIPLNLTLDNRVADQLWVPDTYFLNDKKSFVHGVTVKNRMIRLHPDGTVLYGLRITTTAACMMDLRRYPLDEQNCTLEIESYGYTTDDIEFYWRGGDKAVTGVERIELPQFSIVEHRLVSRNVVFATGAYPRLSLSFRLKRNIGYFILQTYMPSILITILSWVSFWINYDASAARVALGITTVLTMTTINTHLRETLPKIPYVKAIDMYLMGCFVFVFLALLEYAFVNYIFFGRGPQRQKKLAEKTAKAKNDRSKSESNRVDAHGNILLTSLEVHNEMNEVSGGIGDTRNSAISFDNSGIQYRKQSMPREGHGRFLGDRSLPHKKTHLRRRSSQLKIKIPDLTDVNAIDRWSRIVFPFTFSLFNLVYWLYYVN
T1 sequence (P18507 40-475): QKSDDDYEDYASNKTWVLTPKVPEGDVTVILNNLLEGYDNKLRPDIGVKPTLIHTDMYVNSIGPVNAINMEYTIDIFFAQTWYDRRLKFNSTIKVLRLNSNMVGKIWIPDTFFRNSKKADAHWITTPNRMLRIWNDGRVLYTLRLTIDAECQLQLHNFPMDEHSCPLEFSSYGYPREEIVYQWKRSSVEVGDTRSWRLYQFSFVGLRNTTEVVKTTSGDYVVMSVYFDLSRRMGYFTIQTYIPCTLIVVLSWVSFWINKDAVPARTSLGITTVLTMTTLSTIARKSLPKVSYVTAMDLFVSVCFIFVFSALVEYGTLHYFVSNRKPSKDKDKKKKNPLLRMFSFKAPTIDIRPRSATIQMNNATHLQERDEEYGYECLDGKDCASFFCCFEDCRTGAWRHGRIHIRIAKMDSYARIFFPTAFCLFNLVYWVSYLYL

α1β3γ2L GABAA receptors [3] = biological target: T1, α1β3γ2L GABAA receptors; format: cell-based
α1β3γ2L GABAA receptors [4] = biological target: T1, α1β3γ2L GABAA receptors; format: cell-based; remark: listed apart in the source
[5] = biological target: α1β3γ2L GABAA receptor open and closed states (Homo sapiens, UniProt P14867+P18507+P28472); experiment: Allosteric modeling of direct activation data; format: cell-based
Sequence of α1β3γ2L GABAA receptor open and closed states (P14867 28-456): as the sequence (P14867 28-456) above
Sequence of α1β3γ2L GABAA receptor open and closed states (P28472 26-473): as the sequence (P28472 26-473) above
Sequence of α1β3γ2L GABAA receptor open and closed states (P18507 40-475): as the sequence (P18507 40-475) above

Aqueous saturation = format: physicochemical; conditions: aqueous buffer
[6] = biological target: α1β3γ2L GABAA receptors (α+−β− and γ+−β− transmembrane anesthetic sites) (Homo sapiens, UniProt P14867+P18507+P28472); experiment: Inhibition of receptor photoaffinity labeling by R-[3H]mTFD-MPAB; conditions: for slope for inhibition of R-[3H]mTFD-MPAB photoincorporation: fit to equation 2
Sequence of α1β3γ2L GABAA receptors (α+−β− and γ+−β− transmembrane anesthetic sites) (P14867 28-456): as the sequence (P14867 28-456) above
Sequence of α1β3γ2L GABAA receptors (α+−β− and γ+−β− transmembrane anesthetic sites) (P28472 26-473): as the sequence (P28472 26-473) above
Sequence of α1β3γ2L GABAA receptors (α+−β− and γ+−β− transmembrane anesthetic sites) (P18507 40-475): as the sequence (P18507 40-475) above

[7] = biological target: α1β3γ2L GABAA receptors (β+−α− transmembrane anesthetic sites) (Homo sapiens, UniProt P14867+P18507+P28472); experiment: Inhibition of receptor photoaffinity labeling by [3H]azi-etomidate; conditions: for slope for inhibition of [3H]azi-etomidate photoincorporation: fit to equation 2
Sequence of α1β3γ2L GABAA receptors (β+−α− transmembrane anesthetic sites) (P14867 28-456): as the sequence (P14867 28-456) above
Sequence of α1β3γ2L GABAA receptors (β+−α− transmembrane anesthetic sites) (P28472 26-473): as the sequence (P28472 26-473) above
Sequence of α1β3γ2L GABAA receptors (β+−α− transmembrane anesthetic sites) (P18507 40-475): as the sequence (P18507 40-475) above

α1β3γ2L GABAA receptors [8] = biological target: T1, α1β3γ2L GABAA receptors; conditions: 300 μM naphthalene-etomidate; for Percent change in peak current amplitude, GABA EC5 + Etomidate: etomidate 3 μM; for Percent change in peak current amplitude, GABA EC5 + Pentobarbital: pentobarbital 120 μM; for Percent change in peak current amplitude, GABA EC5 + Propofol: propofol 10 μM
[9] = EC5 GABA + 10 μM propofol, fit to equation 2
[10] = listed as Naphthalene-etomidate
[11] = GABA Pre-exposure, mean ± SD, n = 6
[12] = Naphthalene-etomidate Pre-exposure (10 s), mean ± SD, n = 6
[13] = Simultaneous Addition, mean ± SD, n = 6
[14] = absence of naphthalene-etomidate
[15] = presence of 300 μM naphthalene-etomidate

CCCC(C)C1(CC)C(=O)NC(=O)NC1=O (stereo not shown) [pentobarbital]
binding selectivity for β+–α− sites as compared to α+–β−/γ+–β− sites [1]: reverse selectivity

CCOC(=O)c1cncn1[C@H](C)c1ccccc1 [etomidate, reference compound]
fold potentiation of EC5 GABA-evoked current (α1β3γ2L GABAA receptors [2]; 100 μM drug, representative traces, single oocyte): 14 fold | EC5 GABA-evoked currents in the presence of drug, as % of those evoked by 1 mM GABA (α1β3γ2L GABAA receptors [2]): 90 ± 7% | maximum peak current amplitude at high drug concentrations, relative to that produced by 1 mM GABA (α1β3γ2L GABAA receptors [2]): 95% | slope of potentiation concentration-response curve (α1β3γ2L GABAA receptors [2]): 1.2 | slope of direct activation concentration-response curve (α1β3γ2L GABAA receptors [3]; fit to equation 1): 1.2

CCOC(=O)c1cncn1C(C)c1cccc2ccccc12 (stereo not shown) [naphthalene-etomidate]
EC5 GABA-evoked currents in the presence of drug, as % of those evoked by 1 mM GABA (α1β3γ2L GABAA receptors [2]): 11 ± 2.7% and 11% | maximum peak current amplitude at high drug concentrations, relative to that produced by 1 mM GABA (α1β3γ2L GABAA receptors [2]): 11% | slope of potentiation concentration-response curve (α1β3γ2L GABAA receptors [2]): 3 | directly activated currents compared with those activated by etomidate (α1β3γ2L GABAA receptors [3]; same oocyte, no GABA): orders of magnitude smaller | fold increase in EC50 for propofol potentiation of EC5 GABA-evoked currents (α1β3γ2L GABAA receptors [4]; 300 μM naphthalene-etomidate): 6 fold | minimum normalized peak current at high naphthalene-etomidate concentrations (α1β3γ2L GABAA receptors [4]; [9]): 24% | slope for inhibition of propofol-potentiated currents (α1β3γ2L GABAA receptors [4]; [9]): −3.9 | fold lower affinity for the open state of the receptor versus etomidate ([5]; comparison of dissociation constants): 27 fold | fold higher affinity for the open state than the closed state ([5]; from Kdopen and Kdclosed): 4.4 fold | near aqueous-saturating concentration (Aqueous saturation): ~300 µM | slope for inhibition of R-[3H]mTFD-MPAB photoincorporation [6]: −1.3 | slope for inhibition of R-[3H]mTFD-MPAB photoincorporation [6, 10]: −2.0 | inhibition of specific R-[3H]mTFD-MPAB photoincorporation ([6]; highest concentrations studied): ≥ 90% | slope for inhibition of [3H]azi-etomidate photoincorporation [7]: −2.0 | slope for inhibition of [3H]azi-etomidate photoincorporation [7, 10]: −1.2 | inhibition of specific [3H]azi-etomidate photoincorporation ([7]; highest concentrations studied): ≥ 90% | fold greater reduction in currents potentiated by propofol compared to currents potentiated by etomidate or pentobarbital (α1β3γ2L GABAA receptors [8]): approximately 2 fold | Percent change in peak current amplitude, GABA EC5 + Diazepam (α1β3γ2L GABAA receptors [8]; GABA Pre-exposure, diazepam 1 μM, mean ± SD, n = 6): 33 ± 6.9% | Percent change in peak current amplitude, GABA EC5 + Etomidate (α1β3γ2L GABAA receptors [8]; [11]): −24 ± 1.8% | Percent change in peak current amplitude, GABA EC50 (α1β3γ2L GABAA receptors [8]; [11]): 21 ± 9% | Percent change in peak current amplitude, GABA EC5 + Pentobarbital (α1β3γ2L GABAA receptors [8]; [11]): −21 ± 5.4% | Percent change in peak current amplitude, GABA EC5 + Propofol (α1β3γ2L GABAA receptors [8]; [11]): −49 ± 4.69% | Percent change in peak current amplitude, GABA EC5 + Etomidate (α1β3γ2L GABAA receptors [8]; [12]): −47 ± 4.1% | Percent change in peak current amplitude, GABA EC50 (α1β3γ2L GABAA receptors [8]; [12]): −8.8 ± 8.6% | Percent change in peak current amplitude, GABA EC5 + Pentobarbital (α1β3γ2L GABAA receptors [8]; [12]): −45 ± 7.9% | Percent change in peak current amplitude, GABA EC5 + Propofol (α1β3γ2L GABAA receptors [8]; [12]): −68 ±6.0% | Percent change in peak current amplitude, GABA EC5 + Etomidate (α1β3γ2L GABAA receptors [8]; [13]): −33 ± 7.8% | Percent change in peak current amplitude, GABA EC50 (α1β3γ2L GABAA receptors [8]; Simultaneous Addition, mean ± SD, n = 6 oocytes): 7.3 ± 8.8% | Percent change in peak current amplitude, GABA EC5 + Pentobarbital (α1β3γ2L GABAA receptors [8]; [13]): −33 ± 7.1% | Percent change in peak current amplitude, GABA EC5 + Propofol (α1β3γ2L GABAA receptors [8]; [13]): −63 ± 7.3%

CC(C)c1cccc(C(C)C)c1O [propofol]
peak current amplitude (normalized to 1 mM GABA) produced with EC5 GABA (α1β3γ2L GABAA receptors [4]; 10 μM propofol, absence of naphthalene-etomidate): 61% | EC50 (α1β3γ2L GABAA receptors [4]; EC50 for propofol potentiation of EC5 GABA-evoked currents, absence of naphthalene-etomidate, minimum constrained to 5%): 6 µM | maximal peak current response at high propofol concentrations (α1β3γ2L GABAA receptors [4]; [14]): 88% | slope of propofol potentiation curve (α1β3γ2L GABAA receptors [4]; [14]): 1.5 | maximal peak current response at high propofol concentrations (α1β3γ2L GABAA receptors [4]; [15]): 87% | slope of propofol potentiation curve (α1β3γ2L GABAA receptors [4]; [15]): 1.0 | binding selectivity for β+–α− sites as compared to α+–β−/γ+–β− sites [1]: essentially no selectivity at all; also recorded: virtually no binding site selectivity
